Test results: the NIST ThermoML archive (doi:10.1016/j.jct.2006.09.012)
Numbers after ± are expanded uncertainties.

Settings: Liquid, Buoyancy - hydrostatic balance with magnetic suspension - two sinkers

CCOC(F)(C(F)(F)C(F)(F)C(F)(F)F)C(F)(C(F)(F)F)C(F)(F)F (stereo not drawn) [2-trifluoromethyl-3-ethoxydodecafluorohexane]
Settings	mass density [kg/m3]
285 K, 1204.2 kPa	1650.59 ± 2.2
285 K, 1204.8 kPa	1650.6 ± 2.2
285 K, 1205.2 kPa	1650.59 ± 2.2
285 K, 5212.8 kPa	1659.79 ± 2.2
285 K, 5220.2 kPa	1659.81 ± 2.2
285 K, 10181 kPa	1670.44 ± 2.2
285 K, 10197 kPa	1670.47 ± 2.2
308 K, 19845 kPa	1649.2 ± 2.2
308.01 K, 1314.5 kPa	1604.24 ± 2.1
308.01 K, 1320.9 kPa	1604.26 ± 2.1
308.01 K, 1331 kPa	1604.29 ± 2.1
308.01 K, 5215.7 kPa	1614.98 ± 2.1
308.01 K, 5219.6 kPa	1614.99 ± 2.1
308.01 K, 5223.4 kPa	1615 ± 2.1
308.01 K, 10450 kPa	1628.17 ± 2.2
308.01 K, 10468 kPa	1628.21 ± 2.2
308.01 K, 10476 kPa	1628.24 ± 2.2
308.01 K, 19786 kPa	1649.07 ± 2.2
308.01 K, 19825 kPa	1649.16 ± 2.2
350 K, 1285.8 kPa	1515.32 ± 2.1
350 K, 1286 kPa	1515.32 ± 2.1
350 K, 1286.3 kPa	1515.32 ± 2.1
350 K, 1286.4 kPa	1515.32 ± 2.1
350 K, 1286.7 kPa	1515.32 ± 2.1
350 K, 1286.8 kPa	1515.32 ± 2.1
350 K, 5286.1 kPa	1531.01 ± 2.1
350 K, 5291 kPa	1531.03 ± 2.1
350 K, 10388 kPa	1548.66 ± 2.1
350 K, 10394 kPa	1548.69 ± 2.1
350 K, 10401 kPa	1548.71 ± 2.1
350 K, 16836 kPa	1568.2 ± 2.2
350 K, 16850 kPa	1568.24 ± 2.2
350 K, 17082 kPa	1568.89 ± 2.2
350 K, 19716 kPa	1576.14 ± 2.2
350 K, 19732 kPa	1576.18 ± 2.2
350 K, 19786 kPa	1576.33 ± 2.2
400 K, 1164.3 kPa	1398.22 ± 2
400 K, 1164.4 kPa	1398.22 ± 2
400 K, 1164.7 kPa	1398.23 ± 2
400 K, 5225.5 kPa	1424.08 ± 2
400 K, 5227.2 kPa	1424.09 ± 2
400 K, 5228.8 kPa	1424.1 ± 2
400 K, 9975.6 kPa	1448.91 ± 2.1
400 K, 9979.7 kPa	1448.93 ± 2.1
400 K, 9984.1 kPa	1448.95 ± 2.1
400 K, 19197 kPa	1487.27 ± 2.1
400 K, 19208 kPa	1487.3 ± 2.1
400 K, 19218 kPa	1487.34 ± 2.1
400 K, 19258 kPa	1487.49 ± 2.1
400 K, 19276 kPa	1487.55 ± 2.1
400 K, 19287 kPa	1487.59 ± 2.1
400 K, 19317 kPa	1487.71 ± 2.1
400 K, 19328 kPa	1487.74 ± 2.1
400 K, 19347 kPa	1487.81 ± 2.1
400 K, 19369 kPa	1487.89 ± 2.1
400 K, 19380 kPa	1487.93 ± 2.1
400 K, 19391 kPa	1487.97 ± 2.1
400 K, 19416 kPa	1488.07 ± 2.1
400 K, 19495 kPa	1488.35 ± 2.1
400 K, 19519 kPa	1488.44 ± 2.1
400 K, 19543 kPa	1488.53 ± 2.1
400 K, 19560 kPa	1488.59 ± 2.1
400 K, 19582 kPa	1488.67 ± 2.1
